# Experimental data published in patent US20260258049A1, “Molecules and Methods Related to Treatment of Uncontrolled Cellular Proliferation” (ST. JUDE CHILDREN'S RESEARCH HOSPITAL, priority 2019, published 2026).
# Read-outs that look alike come from different tables or passages of the source.
# Key:
# [1] = system: Human CD45+ leukemic cells purified from patient derived xenografts (PDX)
# GSPT1 = molecular target: T1, GSPT1 (Homo sapiens, UniProt P15170); assay: Immunoblot protein degradation in MHH-CALL-4 cells; assay type: cell-based
# T1 construct: degradation of JAK2 and GSPT1 in MHH-CALL-4 cells; endogenous in cells; host or cells: MHH-CALL-4
# T1 sequence (P15170 whole entry): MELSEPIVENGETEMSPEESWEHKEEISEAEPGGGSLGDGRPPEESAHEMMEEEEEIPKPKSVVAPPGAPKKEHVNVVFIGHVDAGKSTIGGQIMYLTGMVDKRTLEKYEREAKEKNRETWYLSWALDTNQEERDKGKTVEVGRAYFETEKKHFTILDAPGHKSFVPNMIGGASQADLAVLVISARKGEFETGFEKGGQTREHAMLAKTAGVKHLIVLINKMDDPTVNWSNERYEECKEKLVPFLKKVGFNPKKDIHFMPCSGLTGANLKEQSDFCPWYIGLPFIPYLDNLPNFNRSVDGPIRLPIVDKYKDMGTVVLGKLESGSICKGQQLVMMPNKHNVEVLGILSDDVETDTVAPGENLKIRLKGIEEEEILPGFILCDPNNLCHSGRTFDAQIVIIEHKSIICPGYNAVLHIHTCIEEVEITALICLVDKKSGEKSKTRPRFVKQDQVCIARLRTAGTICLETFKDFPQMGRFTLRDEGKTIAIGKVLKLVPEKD
# Experimental: Cells were washed twice with ice-cold PBS and lysed in RIPA lysis buffer (Sigma) freshly supplemented with Halt™ Protease Inhibitor Cocktail (ThermoFisher) for 15 minutes on ice. The cell pellet was removed by centrifugation at 13,000 g at 4° C. for 15 minutes. Protein concentration was measured by BCA assay (Thermo Fisher Scientific). Proteins were denatured in NuPAGE LDS 4× sample buffer supplemented with reducing agents (Invitrogen). Typically, 10-20 µg of total protein was loaded per lane on a 4%-12% NuPAGE Bis-Tris gradient gel (Invitrogen) and analyzed by standard immunoblotting and imaged using Li-COR Odyssey CLx (LI-COR Biotechnology, Lincoln, NE). Primary antibodies used were: JAKI (Cell Signaling #3332S), JAK2 (#3230S), JAK3 (#8827S), TYK2 (#9312S), GSPT1 (#14980S), CRBN (#71810S), IKZF1 (Santa Cruz Biotechnology, SC-398265) and ACBT (Santa Cruz Biotechnology, SC-47778).
# MHH-CALL-4 = assay: Cytotoxicity assay (resazurin, 72 hours); assay type: cell-based, human
# JAK2 = molecular target: T2, JAK2 (Homo sapiens, UniProt O60674, I682F); assay: Immunoblot protein degradation in MHH-CALL-4 cells; assay type: cell-based
# T2 construct: degradation of JAK2 and GSPT1 in MHH-CALL-4 cells; endogenous in cells; host or cells: MHH-CALL-4
# T2 sequence (O60674 whole entry I682F): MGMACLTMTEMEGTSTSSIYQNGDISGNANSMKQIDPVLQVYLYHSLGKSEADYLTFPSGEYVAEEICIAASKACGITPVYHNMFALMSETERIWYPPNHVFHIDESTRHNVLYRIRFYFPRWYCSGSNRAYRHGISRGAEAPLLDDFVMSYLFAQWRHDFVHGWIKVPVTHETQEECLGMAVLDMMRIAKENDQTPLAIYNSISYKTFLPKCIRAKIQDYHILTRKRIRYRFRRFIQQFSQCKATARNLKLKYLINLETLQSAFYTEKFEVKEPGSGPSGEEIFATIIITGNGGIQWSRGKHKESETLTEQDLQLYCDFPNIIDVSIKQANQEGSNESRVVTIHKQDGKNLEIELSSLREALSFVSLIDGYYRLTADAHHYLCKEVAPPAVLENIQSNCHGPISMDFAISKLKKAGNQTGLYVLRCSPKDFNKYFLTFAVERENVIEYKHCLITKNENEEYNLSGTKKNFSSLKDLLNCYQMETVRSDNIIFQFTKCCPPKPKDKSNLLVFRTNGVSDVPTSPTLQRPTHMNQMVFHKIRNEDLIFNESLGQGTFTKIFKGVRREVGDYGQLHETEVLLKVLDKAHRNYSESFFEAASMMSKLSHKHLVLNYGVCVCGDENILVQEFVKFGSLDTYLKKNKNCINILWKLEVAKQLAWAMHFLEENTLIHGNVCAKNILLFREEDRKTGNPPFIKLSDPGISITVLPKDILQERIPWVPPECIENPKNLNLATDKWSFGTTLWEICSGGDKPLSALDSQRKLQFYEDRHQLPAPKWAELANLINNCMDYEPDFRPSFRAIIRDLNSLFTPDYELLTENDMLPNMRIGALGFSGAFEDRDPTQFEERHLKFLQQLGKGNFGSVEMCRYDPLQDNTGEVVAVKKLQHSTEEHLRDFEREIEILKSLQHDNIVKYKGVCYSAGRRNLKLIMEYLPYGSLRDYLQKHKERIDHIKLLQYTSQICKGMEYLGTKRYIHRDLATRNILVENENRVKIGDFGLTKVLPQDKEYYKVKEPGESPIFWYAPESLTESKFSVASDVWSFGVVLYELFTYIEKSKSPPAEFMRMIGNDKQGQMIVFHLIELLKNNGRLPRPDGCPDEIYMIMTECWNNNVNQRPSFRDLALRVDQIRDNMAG
# [2] = system: JAK-STAT5 signaling pathway; assay: Phosphoflow analysis in MHH-CALL-4 cells with or without TSLP; assay type: cell-based, human; details: 1 μM, one hour before TSLP 25 ng/mL for 30 minutes
# Caco-2 cells = assay: Caco-2 cell permeability; assay type: in vitro ADME
# Experimental: Compound Caco-2 cell permeability was determined using the Transwell® 0.4 μm polycarbonate membrane 96-well as described before (Uchida, et al. (2009) J Pharmacol Toxicol Methods 59(1): 39-43). Briefly, Caco-2 cells monolayers were incubated over 2 hours at 37° C. Fractions were collected from receivers (basal side, B), and concentrations were assessed by UPLC/MS (Waters; Milford, MA). All compounds were tested in triplicates. The A→B (or B→A) apparent permeability coefficients (Papp) of each compound were calculated using the equation, Papp=dQ/dt×1/AC0, where dQ/dt equals the flux of a drug across the monolayer, A equals the total insert well surface area, and CO is the initial concentration of substrate in the donor compartment.
Structure (SMILES),cytotoxicity in PDX cells ex vivo [1],extent of degradation of GSPT1 (GSPT1),"killing of MHH-CALL-4 cells / cytotoxicity, in words (MHH-CALL-4)",extent of degradation of JAK2 (JAK2),further results
"CC(=O)Nc1cc(Oc2ccc3c(nc(Nc4ccc(F)cc4F)n3C)c2C)ccn1 [CHZ868, reference compound]",not,,,,
CC(=O)NCCCNc1ccc2c(c1)C(=O)N(C1CCC(=O)NC1=O)C2=O (stereo not shown) [Cmpd. no. 53],,preferential,intermediately effective,,
CNCCCN1CCN(c2ccc3c(c2)C(=O)N(C2CCC(=O)NC2=O)C3=O)CC1 (stereo not shown) [Cmpd. no. 56],,,intermediately effective,preferential,
CC(=O)NCCCNC(=O)COc1cccc2c1C(=O)N(C1CCC(=O)NC1=O)C2=O (stereo not shown) [Cmpd. no. 59],,minimal activity on either target,relatively low activity,minimal activity on either target,
CNCCCCNc1ccc2c(c1)C(=O)N(C1CCC(=O)NC1=O)C2=O (stereo not shown) [Cmpd. no. 80],,minimal activity on either target,relatively low activity,minimal activity on either target,
N#CC[C@H](C1CCCC1)n1cc(-c2nc(Nc3ccc(C(=O)NCCCCNc4cccc5c4C(=O)N(C4CCC(=O)NC4=O)C5=O)cc3)nc3[nH]ccc23)cn1 (stereo partly shown) [Compound 5],show cytotoxicity,degradation of GSPT1 was observed,,,"EC50 (MHH-CALL-4; Homo sapiens, MHHCALL4, Table 6, no star, read-out: HHCALL4 (nM), MHHCALL4 EC50): 784 nM; JAK inhibition (phosphoflow) [2]: comparable JAK inhibition"
CCS(=O)(=O)N1CC(CC#N)(n2cc(-c3nc(Nc4ccc(C(=O)NCCCCNc5cccc6c5C(=O)N(C5CCC(=O)NC5=O)C6=O)cc4)nc4[nH]ccc34)cn2)C1 (stereo not shown) [Compound 6],show cytotoxicity,,,,"EC50 (MHH-CALL-4; Table 6, no star, read-out: HHCALL4 (nM), MHHCALL4 EC50): 1.52 nM; JAK inhibition (phosphoflow) [2]: comparable JAK inhibition"
CCS(=O)(=O)N1CC(CC#N)(n2cc(-c3nc(Nc4ccc(C(=O)NCCN5CCN(c6ccc7c(c6)C(=O)N(C6CCC(=O)NC6=O)C7=O)CC5)cc4)nc4[nH]ccc34)cn2)C1 (stereo not shown) [Compound 8],,,intermediately effective,,"killing of MHH-CALL-4 cells / cytotoxicity, in words (MHH-CALL-4; listed as compound 8): reduced activity"
"N#CC[C@H](C1CCCC1)n1cc(-c2ncnc3[nH]ccc23)cn1 [Ruxolitinib, reference compound]",,,,,"EC50 (MHH-CALL-4; Homo sapiens, MHHCALL4, read-out: HHCALL4 (nM), MHHCALL4 EC50): 5800 nM"
CCCn1cc(-c2nc(Nc3ccc(C(=O)NCCCCNc4cccc5c4C(=O)N(C4CCC(=O)NC4=O)C5=O)cc3)nc3[nH]ccc23)cn1 (stereo not shown) [SJ000988497],,,,,"Papp, Caco-2 assay (Caco-2 cells): 1.912 ×10⁻⁶ cm/s"
